In patent US20120128650A1, “EXTENDED ACTING OXYGEN GENERATING COMPOSITION FOR TREATING MICROBIAL INFECTIONS” (DEC INTERNATIONAL NZ LIMITED, priority 2009, published 2012):

Experiments:
[1] = pH, oxygen and peroxide analysis after addition of coated sodium percarbonate to milk; type: physicochemical
Method: Sodium percarbonate coated with ethyl cellulose was added to 20 mL pasteurized and homogenized milk. The pH value (by pH Meter), the concentration of oxygen (by potentiometric electrode) and peroxide (by chemical test strips) were measured at interval sampling time, as shown in FIG. 4A-C.

Staphylococcus aureus = assay: Growth of Staphylococcus aureus in mastitic milk, colony counts; type: cell-based; conditions: 10 micromoles per ml added at 60 minutes, oxygen-limited
Method: Milk was collected at the morning milking, using aseptic technique, from a quarter that had been identified as having a sub-clinical infection with a single organism. The milk was taken to the laboratory and within 2 hours of collection divided amongst sterile incubation containers. The container was either a sealed vessel that was filled so there was no head-space and could be sampled through a rubber septum (limited oxygen) or a flask with a large surface area and head space, incubated in a shaking incubator (oxygenated). Because milk is aerated during collection and handling the samples should have the same oxygen content at the start of incubation. The growth rate was determined by sampling at regular intervals, diluting into recovery diluent, plating and counting the number of colonies.

O=C([O-])[O-].O=C([O-])[O-].OO.OO.OO.[Na+].[Na+].[Na+].[Na+] [sodium percarbonate]
amount required to deliver 30 mg peroxide [1]: 70 to 100 mg

OO [Hydrogen peroxide]
number of viable organisms (Staphylococcus aureus; after 4 hours, from around 3000 cfu per ml at 60 minutes): 20 cfu per ml
number of viable organisms (Staphylococcus aureus; at 10 hours and thereafter): no detectable organisms
